For test [1], the species on record is Homo sapiens. The test is described as follows: Ratio of compound IC50 to (4aR,4bS,6aS,7S,9aS,9bS,11aR)-N,N-diethyl-1,4a,6a-trimethyl-2-oxohexadecahydro-1H-indeno[5,4-f]quinoline-7-carboxamide IC50 for human steroid 5alpha-reductase.
The species entered for test [2] is Homo sapiens. The test is described as follows: Ratio of compound pIC50 to (4aR,4bS,6aS,7S,9aS,9bS,11aR)-N,N-diethyl-1,4a,6a-trimethyl-2-oxohexadecahydro-1H-indeno[5,4-f]quinoline-7-carboxamide pIC50 for human steroid 5alpha-reductase.

Structures are written as SMILES.

As a reminder, the pIC50 is −log10 of the IC50, conventionally taken in molar units.

With `COC(CNC(=O)[C@H]1CC[C@H]2[C@@H]3CC[C@H]4NC(=O)CC[C@]4(C)[C@H]3CC[C@]12C)OC`, the Ratio IC50 in the test listed under Homo sapiens [1] is 20. The pIC50 in the test listed under Homo sapiens [2] worked out at 6.7.
The like results for `CN1C(=O)CC[C@]2(C)[C@H]3CC[C@]4(C)[C@@H](C(=O)NC(C)(C)C)CC[C@H]4[C@@H]3CC[C@@H]12` were, in that order, 1.1 and 7.96.
For the molecule `CCCCCCCNC(=O)[C@H]1CC[C@H]2[C@@H]3CC[C@H]4N(C)C(=O)CC[C@]4(C)[C@H]3CC[C@]12C`, the Ratio IC50 in the test listed under Homo sapiens [1] was 4. In addition, the pIC50 in the test listed under Homo sapiens [2] was determined as 7.4.
For `CCCCCCCNC(=O)[C@H]1CC[C@H]2[C@@H]3CC[C@H]4NC(=O)CC[C@]4(C)[C@H]3CC[C@]12C`, in that order: 2.4 and 7.62.
As for `CN1C(=O)CC[C@]2(C)[C@H]3CC[C@]4(C)[C@@H](C(=O)NC(C)(C)CC(C)(C)C)CC[C@H]4[C@@H]3CC[C@@H]12`, the Ratio IC50 in the test filed under Homo sapiens [1] was found to be 0.52. In addition, the pIC50 in the test listed under Homo sapiens [2] is 8.28.
For `CC(C)N(C(=O)[C@H]1CC[C@H]2[C@@H]3CC[C@H]4NC(=O)CC[C@]4(C)[C@H]3CC[C@]12C)C(C)C`, in that order: 1.5 and 7.82.
For the molecule `CCOC(=O)C[C@H]1CC[C@H]2[C@@H]3CC[C@H]4N(C)C(=O)CC[C@]4(C)[C@H]3CC[C@]12C`, the Ratio IC50 in the test filed under Homo sapiens [1] worked out at 29. In addition, the pIC50 in the test listed under Homo sapiens [2] was 6.54.
The like results for `CCN(CC)C(=O)C[C@H]1CC[C@H]2[C@@H]3CC[C@H]4N(C)C(=O)CC[C@]4(C)[C@H]3CC[C@]12C` were, in that order, 2 and 7.7.
For `C[C@]12CCC(=O)N[C@@H]1CC[C@@H]1[C@@H]2CC[C@]2(C)[C@@H](C(N)=O)CC[C@@H]12`, in that order: 150 and 5.82.
For `CC(C)CC(=O)[C@H]1CC[C@H]2[C@@H]3CC[C@H]4NC(=O)CC[C@]4(C)[C@H]3CC[C@]12C`, in that order: 4.2 and 7.38.
Take `CCCCCNC(=O)[C@H]1CC[C@H]2[C@@H]3CC[C@H]4N(C)C(=O)CC[C@]4(C)[C@H]3CC[C@]12C`: in the test listed under Homo sapiens [1], the Ratio IC50 stood at 2.4. Moreover, the pIC50 in the test listed under Homo sapiens [2] was determined as 7.62.
For `CCN(CC)C(=O)[C@H]1CC[C@H]2[C@@H]3CC[C@H]4N(C)C(=O)[C@@H](F)C[C@]4(C)[C@H]3CC[C@]12C`, in that order: 5 and 7.3.
Regarding `CCC(C)C(=O)[C@H]1CC[C@H]2[C@@H]3CC[C@H]4NC(=O)CC[C@]4(C)[C@H]3CC[C@]12C` (stereo not given in full), in the test listed under Homo sapiens [1], the Ratio IC50 is 4. Moreover, in the test filed under Homo sapiens [2], the negative logarithm of the IC50 (pIC50) worked out at 7.4.
The like results for `COC(=O)[C@H](C)[C@H]1CC[C@H]2[C@@H]3CC[C@H]4N(C)C(=O)CC[C@]4(C)[C@H]3CC[C@]12C` were, in that order, 143 and 5.84.
As to `CN1C(=O)CC[C@]2(C)[C@H]3CC[C@]4(C)[C@@H](C(=O)NC(C)(C)CO)CC[C@H]4[C@@H]3CC[C@@H]12`, in the test filed under Homo sapiens [1], the Ratio IC50 was determined as 2. Further, in the test filed under Homo sapiens [2], the pIC50 worked out at 7.7.
For `CCN(CC)C(=O)CNC(=O)[C@H]1CC[C@H]2[C@@H]3CC[C@H]4N(C)C(=O)CC[C@]4(C)[C@H]3CC[C@]12C`, in that order: 11 and 6.96.
For `COC(=O)[C@H]1CC[C@H]2[C@@H]3CC[C@H]4N(C)C(=O)CC[C@]4(C)[C@H]3CC[C@]12C`, in that order: 17 and 6.77.
For `CCN(CCO)C(=O)[C@H]1CC[C@H]2[C@@H]3CC[C@H]4N(C)C(=O)CC[C@]4(C)[C@H]3CC[C@]12C`, in that order: 3 and 7.52.
Consider `CC(C)(C)NC(=O)[C@H]1CC[C@H]2[C@@H]3CC[C@H]4NC(=O)CC[C@]4(C)[C@H]3CC[C@]12C`, for which the Ratio IC50 in the test listed under Homo sapiens [1] turned out to be 1.7. In the test listed under Homo sapiens [2], the pIC50 is 7.77.
For the molecule `CN1C(=O)CC[C@]2(C)[C@H]3CC[C@]4(C)[C@@H](C(=O)c5ccco5)CC[C@H]4[C@@H]3CC[C@@H]12`, in the test filed under Homo sapiens [1], the Ratio IC50 was determined as 2. The negative logarithm of the IC50 (pIC50) in the test filed under Homo sapiens [2] came out at 7.7.
The like results for `CCN(CC)C(=O)[C@H]1CC[C@H]2[C@@H]3CC[C@H]4N(C)C(=O)[C@@H](OC)C[C@]4(C)[C@H]3CC[C@]12C` were, in that order, 15 and 6.82.
With `CCN(CC)C(=O)/C=C1/CC[C@H]2[C@@H]3CC[C@H]4N(C)C(=O)CC[C@]4(C)[C@H]3CC[C@]12C`, in the test listed under Homo sapiens [1], the Ratio IC50 is 1.5. Besides, the pIC50 in the test listed under Homo sapiens [2] was 7.82.
The like results for `CCN(CC)C(=O)CC[C@@H](C)[C@H]1CC[C@H]2[C@@H]3CC[C@H]4N(C)C(=O)CC[C@]4(C)[C@H]3CC[C@]12C` were, in that order, 27 and 6.57.
For `CCN(CC)C(=O)[C@H]1CC[C@H]2[C@@H]3CC[C@H]4N(C)C(=O)C(OC)(OC)C[C@]4(C)[C@H]3CC[C@]12C`, in that order: 28 and 6.55.
For `CN1C(=O)CC[C@]2(C)[C@H]3CC[C@]4(C)[C@@H](C5=NCCO5)CC[C@H]4[C@@H]3CC[C@@H]12`, in that order: 11 and 6.96.
In the case of `CCN(CC)C(=O)[C@H]1CC[C@H]2[C@@H]3CC[C@H]4NC(=O)CC[C@]4(C)[C@H]3CC[C@]12C`, the Ratio IC50 in the test listed under Homo sapiens [1] was determined as 1.2. Besides, the negative-log IC50 (pIC50) in the test listed under Homo sapiens [2] stood at 7.92.
Turning to `CN1C(=O)CC[C@]2(C)[C@H]3CC[C@]4(C)[C@@H](C#N)CC[C@H]4[C@@H]3CC[C@@H]12`, the Ratio IC50 in the test listed under Homo sapiens [1] was determined as 83. Moreover, the pIC50 in the test filed under Homo sapiens [2] is 6.08.
The like results for `CCN(CC)C(=O)[C@H]1CC[C@H]2[C@@H]3CC[C@H]4N(C)C(=O)CC[C@]4(C)[C@H]3CC[C@]12C` were, in that order, 1 and 8.
Turning to `CCN(CC)C(=O)[C@H]1CC[C@H]2[C@@H]3CC[C@H]4N(C)C(=O)[C@@H](C)C[C@]4(C)[C@H]3CC[C@]12C`, in the test filed under Homo sapiens [1], the Ratio IC50 amounted to 3.6. Besides, the pIC50 in the test listed under Homo sapiens [2] was 7.44.
Consider `CC(C)(C)OC(=O)[C@H]1CC[C@H]2[C@@H]3CC[C@H]4NC(=O)CC[C@]4(C)[C@H]3CC[C@]12C`, for which the Ratio IC50 in the test listed under Homo sapiens [1] is 8.6. In the test listed under Homo sapiens [2], the negative-log IC50 (pIC50) was 7.07.
On to `CN1C(=O)CC[C@]2(C)[C@H]3CC[C@]4(C)[C@@H](C(=O)N5CCOCC5)CC[C@H]4[C@@H]3CC[C@@H]12`, for which, in the test listed under Homo sapiens [1], the Ratio IC50 was found to be 5.6. The negative logarithm of the IC50 (pIC50) in the test listed under Homo sapiens [2] was 7.25.
The like results for `COC(=O)[C@H]1CC[C@H]2[C@@H]3CC[C@H]4NC(=O)CC[C@]4(C)[C@H]3CC[C@]12C` were, in that order, 42 and 6.38.
The like results for `CCN(CC)C(=O)[C@@H](C)[C@H]1CC[C@H]2[C@@H]3CC[C@H]4N(C)C(=O)CC[C@]4(C)[C@H]3CC[C@]12C` were, in that order, 390 and 5.41.
The like results for `C[C@]12CCC(=O)N[C@@H]1CC[C@@H]1[C@@H]2CC[C@@]2(C)[C@H]1CC[C@@]21CCCO1` were, in that order, 735 and 5.13.
In the case of `C[C@]12CCC(=O)N[C@@H]1CC[C@@H]1[C@@H]2CC[C@]2(C)[C@@H](C(=O)c3ccco3)CC[C@@H]12`, the Ratio IC50 in the test listed under Homo sapiens [1] came to 3.6. Further, the pIC50 in the test listed under Homo sapiens [2] is 7.44.
For the molecule `CCNC(=O)[C@H]1CC[C@H]2[C@@H]3CC[C@H]4N(C)C(=O)CC[C@]4(C)[C@H]3CC[C@]12C`, in the test filed under Homo sapiens [1], the Ratio IC50 amounted to 9.4. In addition, in the test filed under Homo sapiens [2], the negative logarithm of the IC50 (pIC50) was found to be 7.03.
As for `CC(C)N(C(=O)[C@H]1CC[C@H]2[C@@H]3CC[C@H]4N(C)C(=O)CC[C@]4(C)[C@H]3CC[C@]12C)C(C)C`, the Ratio IC50 in the test filed under Homo sapiens [1] was 0.82. In addition, the negative-log IC50 (pIC50) in the test filed under Homo sapiens [2] was found to be 8.09.
For `CC(C)(C)CC(C)(C)NC(=O)[C@H]1CC[C@H]2[C@@H]3CC[C@H]4NC(=O)CC[C@]4(C)[C@H]3CC[C@]12C`, in that order: 0.56 and 8.25.
As for `CN1C(=O)CC[C@]2(C)[C@H]3CC[C@@]4(C)[C@@H](CC[C@@]45CCCO5)[C@@H]3CC[C@@H]12`, the Ratio IC50 in the test listed under Homo sapiens [1] was found to be 144. Moreover, the pIC50 in the test filed under Homo sapiens [2] is 5.84.
For `CNC(=O)[C@H]1CC[C@H]2[C@@H]3CC[C@H]4N(C)C(=O)CC[C@]4(C)[C@H]3CC[C@]12C`, in that order: 28 and 6.55.
Take `CC(C)NC(=O)[C@H]1CC[C@H]2[C@@H]3CC[C@H]4N(C)C(=O)CC[C@]4(C)[C@H]3CC[C@]12C`: the Ratio IC50 in the test listed under Homo sapiens [1] was 4. Moreover, the negative-log IC50 (pIC50) in the test filed under Homo sapiens [2] came out at 7.4.
For the molecule `CC(=O)[C@H]1CC[C@H]2[C@@H]3CC[C@H]4N(C)C(=O)CC[C@]4(C)[C@H]3CC[C@]12C`, the Ratio IC50 in the test filed under Homo sapiens [1] came out at 27. The pIC50 in the test filed under Homo sapiens [2] came to 6.57.
For `CCN(CC)C(=O)[C@H]1CC[C@H]2[C@@H]3CC[C@H]4N(C)C(=O)[C@@H]5C[C@@H]5[C@]4(C)[C@H]3CC[C@]12C`, in that order: 1.3 and 7.89.
Turning to `CCN(CC)C(=O)[C@H]1CC[C@H]2[C@@H]3CC[C@H]4N(C)C(=O)[C@@H]5O[C@@H]5[C@]4(C)[C@H]3CC[C@]12C`, in the test filed under Homo sapiens [1], the Ratio IC50 worked out at 63. The pIC50 in the test listed under Homo sapiens [2] came to 6.2.
For `CN1C(=O)CC[C@]2(C)[C@H]3CC[C@]4(C)[C@@H](C(=O)SC(C)(C)C)CC[C@H]4[C@@H]3CC[C@@H]12`, in that order: 47 and 6.33.
As to `CCN(CC)C(=O)[C@H]1CC[C@H]2[C@@H]3CC[C@H]4N(C)C(=O)C[C@H](C)[C@]4(C)[C@H]3CC[C@]12C`, the Ratio IC50 in the test listed under Homo sapiens [1] worked out at 7. Besides, in the test listed under Homo sapiens [2], the pIC50 was 7.16.
As to `CC(O)[C@H]1CC[C@H]2[C@@H]3CC[C@H]4N(C)C(=O)CC[C@]4(C)[C@H]3CC[C@]12C` (stereo not given in full), the Ratio IC50 in the test listed under Homo sapiens [1] amounted to 17. Further, in the test listed under Homo sapiens [2], the pIC50 worked out at 6.77.
Turning to `CN1C(=O)CC[C@]2(C)[C@H]3CC[C@]4(C)[C@@H](C5=NC(C)(C)CO5)CC[C@H]4[C@@H]3CC[C@@H]12`, the Ratio IC50 in the test listed under Homo sapiens [1] is 125. Further, in the test filed under Homo sapiens [2], the pIC50 turned out to be 5.9.
For `CC(C)CC(=O)[C@H]1CC[C@H]2[C@@H]3CC[C@H]4N(C)C(=O)CC[C@]4(C)[C@H]3CC[C@]12C`, in that order: 2.7 and 7.57.
Take `C[C@H](CO)[C@H]1CC[C@H]2[C@@H]3CC[C@H]4N(C)C(=O)CC[C@]4(C)[C@H]3CC[C@]12C`: the Ratio IC50 in the test filed under Homo sapiens [1] amounted to 15. In addition, the negative-log IC50 (pIC50) in the test filed under Homo sapiens [2] is 6.82.

(Values after ChEMBL document CHEMBL3046716, “Design of potent human steroid 5-reductase inhibitors: 3D-QSAR CoMFA, CoMSIA and docking studies” (Med Chem Res, 2013).)
